Source: ChEMBL document CHEMBL1201862, “PubChem BioAssay data set” (2004)
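Grown in 96-well plates, cells were treated for 48 hours with each compound at five concentrations. Insufficient inhibition: endpoint recorded as highest concentration tested. Here, GI50 denotes the concentration required for 50% inhibition of growth.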 Calls of active or inactive are those of the source. No stated cut-off is given here; in the data, active = GI50 up to about 1.1 µM and inactive = higher.

Key:
Assay in all cases: growth of human tumour cells (NCI), 48 h
A498 = test system: A498
SK-MEL-5 = test system: SK-MEL-5
M14 = test system: M14
HL-60 = test system: HL-60
SK-MEL-28 = test system: SK-MEL-28
Malme-3M = test system: Malme-3M
TK-10 = test system: TK-10
LOX IMVI = test system: LOX IMVI
HCT-15 = test system: HCT-15
SNB-78 = test system: SNB-78
KM-20L2 = test system: KM-20L2
A549 = test system: A549
EKVX = test system: EKVX
OVCAR-8 = test system: OVCAR-8
HOP-18 = test system: HOP-18
HT-29 = test system: HT-29
XF498 = test system: XF498
786-0 = test system: 786-0
HCT-116 = test system: HCT-116
M19-MEL = test system: M19-MEL
RPMI-8226 = test system: RPMI-8226
NCI-H522 = test system: NCI-H522
CCRF-CEM = test system: CCRF-CEM
RXF 393 = test system: RXF 393
NCI-H226 = test system: NCI-H226
NCI-H460 = test system: NCI-H460
RXF 631 = test system: RXF 631
HCC 2998 = test system: HCC 2998
SNB-19 = test system: SNB-19
OVCAR-4 = test system: OVCAR-4
DMS-114 = test system: DMS-114
SK-MEL-2 = test system: SK-MEL-2
UO-31 = test system: UO-31
SK-OV-3 = test system: SK-OV-3
IGROV-1 = test system: IGROV-1
ACHN = test system: ACHN
SN12C = test system: SN12C
MOLT-4 = test system: MOLT-4
DMS-273 = test system: DMS-273
SNB-75 = test system: SNB-75
SW-620 = test system: SW-620
UACC-62 = test system: UACC-62
SF-268 = test system: SF-268
SF-539 = test system: SF-539
U-251 = test system: U-251
OVCAR-3 = test system: OVCAR-3
COLO 205 = test system: COLO 205
NCI-H23 = test system: NCI-H23
HOP-62 = test system: HOP-62
KM12 = test system: KM12
K562 = test system: K562
SF-295 = test system: SF-295
UACC-257 = test system: UACC-257
HOP-92 = test system: HOP-92
NCI/ADR-RES = test system: NCI/ADR-RES
MDA-MB-231 = test system: MDA-MB-231
MCF7 = test system: MCF7
DLD-1 = test system: DLD-1
PC-3 = test system: PC-3
OVCAR-5 = test system: OVCAR-5
MDA-N = test system: MDA-N
Hs-578T = test system: Hs-578T
SR = test system: SR
BT-549 = test system: BT-549
MDA-MB-435 = test system: MDA-MB-435
LXFL 529 = test system: LXFL 529
CAKI-1 = test system: CAKI-1
DU-145 = test system: DU-145
T47D = test system: T47D

## CC(C)(C)[Si](Nc1ccccc1)(c1ccccc1)c1ccccc1
A498
  GI50: 17300 nM (inactive)
SK-MEL-5
  GI50: 17500 nM (inactive)
M14
  GI50: 14000 nM (inactive)
HL-60
  GI50: 13600 nM (inactive)
SK-MEL-28
  GI50: 16600 nM (inactive)
Malme-3M
  GI50: 22100 nM (inactive)
TK-10
  GI50: 14500 nM (inactive)
LOX IMVI
  GI50: 12200 nM (inactive)
HCT-15
  GI50: 15000 nM
SNB-78
  GI50: 16400 nM (inactive)
KM-20L2
  GI50: 15800 nM (inactive)
A549
  GI50: 13000 nM (inactive)
EKVX
  GI50: 16000 nM (inactive)
OVCAR-8
  GI50: 17700 nM (inactive)
HOP-18
  GI50: 13700 nM (inactive)
HT-29
  GI50: 14700 nM (inactive)
XF498
  GI50: 14600 nM (inactive)
786-0
  GI50: 15000 nM (inactive)
HCT-116
  GI50: 7910 nM (inactive)
M19-MEL
  GI50: 14200 nM (inactive)
RPMI-8226
  GI50: 16800 nM (inactive)
NCI-H522
  GI50: > 10000 nM (inactive)
CCRF-CEM
  GI50: 16000 nM (inactive)
RXF 393
  GI50: 13600 nM (inactive)
NCI-H226
  GI50: 15300 nM (inactive)
NCI-H460
  GI50: 18400 nM (inactive)
RXF 631
  GI50: 15500 nM (inactive)
HCC 2998
  GI50: 16100 nM (inactive)
SNB-19
  GI50: 14100 nM (inactive)
OVCAR-4
  GI50: 13900 nM (inactive)
DMS-114
  GI50: 13200 nM (inactive)
SK-MEL-2
  GI50: 18400 nM (inactive)
UO-31
  GI50: 5790 nM (inactive)
SK-OV-3
  GI50: 17100 nM (inactive)
IGROV-1
  GI50: 14700 nM (inactive)
ACHN
  GI50: 16200 nM (inactive)
SN12C
  GI50: 15000 nM (inactive)
MOLT-4
  GI50: 10100 nM (inactive)
DMS-273
  GI50: 13600 nM (inactive)
SNB-75
  GI50: 12100 nM (inactive)
SW-620
  GI50: 17400 nM (inactive)
UACC-62
  GI50: 10600 nM (inactive)
SF-268
  GI50: 13500 nM (inactive)
SF-539
  GI50: 12500 nM (inactive)
U-251
  GI50: 13800 nM (inactive)
OVCAR-3
  GI50: 14300 nM (inactive)
COLO 205
  GI50: 15300 nM (inactive)
NCI-H23
  GI50: 16900 nM (inactive)
HOP-62
  GI50: 16800 nM (inactive)
KM12
  GI50: 13900 nM (inactive)
K562
  GI50: 8260 nM (inactive)
SF-295
  GI50: 13300 nM (inactive)
UACC-257
  GI50: 14900 nM (inactive)
HOP-92
  GI50: 13900 nM (inactive)

## COC(=O)[C@@]12OC[C@]34[C@H]([C@@H](O)[C@@H]1O)[C@@]1(C)CC(=O)C(O)=C(C)[C@@H]1C[C@H]3OC(=O)[C@H](OC(=O)/C=C(\C)C(C)C)[C@@H]24 [BRUCEANTIN]
A498
  GI50: 20 nM (active)
SK-MEL-5
  GI50: 20 nM (active)
M14
  GI50: 3.46 nM (active)
SK-MEL-28
  GI50: 20 nM (active)
NCI/ADR-RES
  GI50: 337 nM (active)
Malme-3M
  GI50: 20 nM (active)
TK-10
  GI50: 21 nM (active)
LOX IMVI
  GI50: 20 nM (active)
HCT-15
  GI50: 21.4 nM
SNB-78
  GI50: 20 nM (active)
KM-20L2
  GI50: 20 nM (active)
MDA-MB-231
  GI50: 38.4 nM (active)
A549
  GI50: 20 nM (active)
EKVX
  GI50: 22.3 nM (active)
OVCAR-8
  GI50: 20 nM (active)
HOP-18
  GI50: 26.5 nM (active)
HT-29
  GI50: 20 nM (active)
XF498
  GI50: 20 nM (active)
786-0
  GI50: 29.2 nM (active)
HCT-116
  GI50: 20 nM (active)
M19-MEL
  GI50: 20 nM (active)
RPMI-8226
  GI50: 20 nM (active)
MCF7
  GI50: 20 nM (active)
DLD-1
  GI50: 20 nM (active)
CCRF-CEM
  GI50: 20 nM (active)
PC-3
  GI50: 16 nM (active)
OVCAR-5
  GI50: 26.5 nM (active)
MDA-N
  GI50: < 10.1 nM (active)
Hs-578T
  GI50: 5.53 nM (active)
RXF 393
  GI50: 20.1 nM (active)
SR
  GI50: 5.12 nM (active)
BT-549
  GI50: 20 nM (active)
NCI-H226
  GI50: 20 nM (active)
NCI-H460
  GI50: 20 nM (active)
RXF 631
  GI50: 0.314 nM (active)
SNB-19
  GI50: 20 nM (active)
OVCAR-4
  GI50: 21.1 nM (active)
MDA-MB-435
  GI50: 18.8 nM (active)
SK-MEL-2
  GI50: 20.9 nM (active)
UO-31
  GI50: 59.8 nM (active)
SK-OV-3
  GI50: 20 nM (active)
IGROV-1
  GI50: 20 nM (active)
LXFL 529
  GI50: 0.035 nM (active)
ACHN
  GI50: 2.6 nM (active)
SN12C
  GI50: 22.2 nM (active)
MOLT-4
  GI50: 20 nM (active)
SNB-75
  GI50: 20 nM (active)
SW-620
  GI50: 20 nM (active)
UACC-62
  GI50: 20 nM (active)
CAKI-1
  GI50: 22 nM (active)
SF-268
  GI50: 20.5 nM (active)
SF-539
  GI50: 20 nM (active)
U-251
  GI50: 24.2 nM (active)
OVCAR-3
  GI50: 24.7 nM (active)
COLO 205
  GI50: 24.2 nM (active)
NCI-H23
  GI50: 20 nM (active)
HOP-62
  GI50: 20 nM (active)
KM12
  GI50: 20 nM (active)
K562
  GI50: 20 nM (active)
SF-295
  GI50: 20 nM (active)
DU-145
  GI50: 14.2 nM (active)
UACC-257
  GI50: 20.8 nM (active)
HOP-92
  GI50: 32.8 nM (active)
T47D
  GI50: 15.3 nM (active)
